The record followed here is patent US7109338B2, “1,2-disubstituted 1,4-dihydro-4-oxoquinoline compounds” (priority 1999, dated 2006).

The structures appear in SMILES notation. Converted amounts (≈) assume the structure as drawn.

One series relates to HRV 2 (HGP). Nature of the series: Anti-rhinovirus activity (MTT), HRV2. It counts as cell-based, human rhinovirus. As to conditions: HeLa (Ohio strain) cells, MTT method, 33° C.
The subject of series [1] is echovirus type 11 (Echo 11, Gregory). Nature of the series: In vitro anti-picornavirus activity (MTT), Echo 11. The note with it: HeLa-S3 cells, MTT method, 37° C. It counts as cell-based. On the technique in general: Tetrazolium assays rely on reduction of a dye to a coloured formazan, in cell work by metabolically active cells.
For series [2], the system named is coxsackievirus type B4 (CB4,JVB). Nature of the series: In vitro anti-picornavirus activity (MTT), CB4. As to conditions: HeLa cells, MTT method, 37° C. It counts as cell-based.
Series [3] has as its system coxsackievirus type A7 (CA7). Nature of the series: In vitro anti-picornavirus activity (MTT), CA7. It counts as cell-based. As to conditions: HeLa-S3 cells, MTT method, 37° C.
A further series relates to HRV 89 (41617-Gallo). Nature of the series: Anti-rhinovirus activity (MTT), HRV89. It counts as cell-based, human rhinovirus. As to conditions: HeLa (Ohio strain) cells, MTT method, 33° C.
In another series the test system is HeLa-S3 cells. In words: Cytotoxicity (MTT, without virus), HeLa-S3. As to conditions: HeLa-S3, no virus, incubated for 4 days.
The subject of a further series is HeLa cells. Nature of the series: Cytotoxicity (MTT, without virus), HeLa. As to conditions: HeLa, no virus, incubated for 4 days.
In another series the test system is HeLa (Ohio strain)cells. In words: Cytotoxicity (MTT, without virus), HeLa(Ohio). As to conditions: HeLa(Ohio), no virus, incubated for 4 days.
The subject of series [4] is human rhinovirus type 1B (HRV 1B, B632). Nature of the series: Anti-rhinovirus activity (MTT), HRV1B. It counts as cell-based. As to conditions: HeLa (Ohio strain) cells, MTT method, 33° C.
The subject of series [5] is Poliovirus type 1 (Polio 1, Sabin). In words: microbe, parasite or virus in culture. It counts as cell-based.

For the molecule `CCCc1ccc2c(c1)c(=O)c(C)c(-c1ccccc1)n2CC` [Compound A30], the “IC50 HRV2” value with HRV 2 (HGP) came out at 0.48 mg/L (≈ 1.57 µM). For the same molecule, in series [1], the “IC50 Echo 11” value was determined as 0.42 mg/L (≈ 1.38 µM). The “IC50 CB4” value in series [2] turned out to be 1.8 mg/L (≈ 5.89 µM). The “IC50 CA7” value in series [3] amounted to 1.2 mg/L (≈ 3.93 µM). Besides, the “IC50 HRV89” value in the series with HRV 89 (41617-Gallo) was determined as 1.0 mg/L (≈ 3.27 µM). The “Cytotoxicity CC50 HeLa-S3” value with HeLa-S3 cells was found to be 6.5 mg/L. Further, in the series on HeLa cells, the “Cytotoxicity CC50 HeLa” value is 6.0 mg/L. Also, the “Cytotoxicity CC50 HeLa(Ohio)” value in the series on HeLa (Ohio strain)cells amounted to 5.8 mg/L. In addition, the “IC50 HRV1B” value in series [4] worked out at 1.6 mg/L (≈ 5.24 µM). For the same molecule, in series [5], the “IC50 Polio 1” value is 1.0 mg/L (≈ 3.27 µM).
`CCCOc1ccc2c(c1)c(=O)c(C)c(-c1ccccc1)n2CC` [Compound A32]: the “IC50 HRV2” value in the series with HRV 2 (HGP) worked out at 0.55 mg/L (≈ 1.71 µM). The “IC50 Echo 11” value in series [1] turned out to be 0.40 mg/L (≈ 1.24 µM). For the same molecule, the “IC50 CB4” value in series [2] is more than 3.3 mg/L. Further, the “IC50 CA7” value in [3] turned out to be 1.9 mg/L (≈ 5.91 µM). The “IC50 HRV89” value with HRV 89 (41617-Gallo) was determined as 0.77 mg/L (≈ 2.4 µM). The “Cytotoxicity CC50 HeLa-S3” value in the series on HeLa-S3 cells is more than 10 mg/L. For the same molecule, the “Cytotoxicity CC50 HeLa” value in the series with HeLa cells turned out to be 9.7 mg/L. In addition, in the series on HeLa (Ohio strain)cells, the “Cytotoxicity CC50 HeLa(Ohio)” value was more than 10 mg/L. Also, the “IC50 HRV1B” value in series [4] was determined as 1.0 mg/L (≈ 3.11 µM). The “IC50 Polio 1” value in series [5] was 0.93 mg/L (≈ 2.89 µM).
For `CCn1c(-c2cccc(F)c2)c(C)c(=O)c2cc(C(C)C)ccc21` [Compound A60], in the series with HRV 2 (HGP), the “IC50 HRV2” value stood at 0.52 mg/L (≈ 1.61 µM). The “IC50 Echo 11” value in series [1] is 0.52 mg/L (≈ 1.61 µM). Further, in series [2], the “IC50 CB4” value was 2.8 mg/L (≈ 8.66 µM). Besides, the “IC50 CA7” value in series [3] came to 2.5 mg/L (≈ 7.73 µM). Further, the “IC50 HRV89” value with HRV 89 (41617-Gallo) is 1.1 mg/L (≈ 3.4 µM). Further, the “Cytotoxicity CC50 HeLa-S3” value in the series with HeLa-S3 cells amounted to 7.0 mg/L. In the series with HeLa cells, the “Cytotoxicity CC50 HeLa” value worked out at 5.3 mg/L. The “Cytotoxicity CC50 HeLa(Ohio)” value in the series with HeLa (Ohio strain)cells came to 5.7 mg/L. The “IC50 HRV1B” value in series [4] amounted to 0.59 mg/L (≈ 1.82 µM). Besides, the “IC50 Polio 1” value in series [5] stood at 1.1 mg/L (≈ 3.4 µM).
For `CC(C)c1ccc2c(c1)c(=O)cc(-c1ccc(Cl)c(Cl)c1)n2C` [Compound A61], the “IC50 HRV2” value in the series with HRV 2 (HGP) was determined as 0.65 mg/L (≈ 1.88 µM). Further, the “IC50 Echo 11” value in series [1] is 0.40 mg/L (≈ 1.16 µM). Further, the “IC50 CB4” value in [2] is more than 4 mg/L. The “IC50 CA7” value in series [3] is more than 4 mg/L. Also, the “IC50 HRV89” value with HRV 89 (41617-Gallo) is 0.38 mg/L (≈ 1.1 µM). In the series with HeLa-S3 cells, the “Cytotoxicity CC50 HeLa-S3” value was more than 4 mg/L. Also, in the series with HeLa cells, the “Cytotoxicity CC50 HeLa” value is more than 4 mg/L. In addition, the “Cytotoxicity CC50 HeLa(Ohio)” value in the series on HeLa (Ohio strain)cells was more than 4 mg/L. In addition, the “IC50 HRV1B” value in series [4] was 0.64 mg/L (≈ 1.85 µM). The “IC50 Polio 1” value in [5] stood at 0.73 mg/L (≈ 2.11 µM).
With `CCn1c(-c2cccc(OC)c2)c(C)c(=O)c2cc(C(C)C)ccc21` [Compound A78], in the series with HRV 2 (HGP), the “IC50 HRV2” value turned out to be 1.7 mg/L (≈ 5.07 µM). Moreover, in series [1], the “IC50 Echo 11” value turned out to be 1.2 mg/L (≈ 3.58 µM). Also, in series [2], the “IC50 CB4” value came to 2.6 mg/L (≈ 7.75 µM). Besides, the “IC50 CA7” value in series [3] came out at 7.1 mg/L (≈ 21.2 µM). For the same molecule, the “IC50 HRV89” value in the series with HRV 89 (41617-Gallo) amounted to 2.9 mg/L (≈ 8.65 µM). Besides, the “Cytotoxicity CC50 HeLa-S3” value in the series with HeLa-S3 cells is more than 8 mg/L. Also, the “Cytotoxicity CC50 HeLa” value in the series on HeLa cells was more than 8 mg/L. The “Cytotoxicity CC50 HeLa(Ohio)” value with HeLa (Ohio strain)cells was more than 8 mg/L. In series [4], the “IC50 HRV1B” value was found to be 5.6 mg/L (≈ 16.7 µM). Further, the “IC50 Polio 1” value in series [5] was determined as 1.3 mg/L (≈ 3.88 µM).
Take `COc1ccc(-c2c(C)c(=O)c3cc(C(C)C)ccc3n2C)cc1` [Compound A81]: in the series with HRV 2 (HGP), the “IC50 HRV2” value came to 0.86 mg/L (≈ 2.68 µM). The “IC50 Echo 11” value in series [1] was 0.52 mg/L (≈ 1.62 µM). Besides, in series [2], the “IC50 CB4” value is 2.2 mg/L (≈ 6.84 µM). For the same molecule, the “IC50 CA7” value in series [3] worked out at 0.78 mg/L (≈ 2.43 µM). In addition, the “IC50 HRV89” value in the series with HRV 89 (41617-Gallo) was 0.55 mg/L (≈ 1.71 µM). Further, the “Cytotoxicity CC50 HeLa-S3” value in the series on HeLa-S3 cells was determined as 7.6 mg/L. In addition, in the series with HeLa cells, the “Cytotoxicity CC50 HeLa” value was determined as 6.5 mg/L. Also, in the series on HeLa (Ohio strain)cells, the “Cytotoxicity CC50 HeLa(Ohio)” value was determined as 5.8 mg/L. For the same molecule, the “IC50 HRV1B” value in series [4] stood at 1.7 mg/L (≈ 5.29 µM). Moreover, the “IC50 Polio 1” value in [5] came out at 0.78 mg/L (≈ 2.43 µM).
With `COc1ccc(-c2cc(=O)c3cc(C(C)C)ccc3n2C)cc1C` [Compound A97], the “IC50 HRV2” value in the series on HRV 2 (HGP) turned out to be 0.61 mg/L (≈ 1.9 µM). Moreover, the “IC50 Echo 11” value in series [1] was 0.3 mg/L (≈ 0.933 µM). The “IC50 CB4” value in series [2] came to 1.4 mg/L (≈ 4.36 µM). Also, in series [3], the “IC50 CA7” value came to 2.1 mg/L (≈ 6.53 µM). In addition, the “IC50 HRV89” value with HRV 89 (41617-Gallo) came to 0.14 mg/L (≈ 0.436 µM). Also, the “Cytotoxicity CC50 HeLa-S3” value in the series with HeLa-S3 cells is more than 10 mg/L. Moreover, the “Cytotoxicity CC50 HeLa” value in the series on HeLa cells is 5.1 mg/L. Moreover, the “Cytotoxicity CC50 HeLa(Ohio)” value in the series on HeLa (Ohio strain)cells came out at 4.5 mg/L. Also, in [4], the “IC50 HRV1B” value amounted to 0.58 mg/L (≈ 1.8 µM). Further, the “IC50 Polio 1” value in series [5] amounted to 0.54 mg/L (≈ 1.68 µM).
With `CCn1c(-c2ccc(OC)c(C)c2)cc(=O)c2cc(C(C)C)ccc21` [Compound A98], the “IC50 HRV2” value in the series on HRV 2 (HGP) was found to be 0.42 mg/L (≈ 1.25 µM). Further, the “IC50 Echo 11” value in series [1] stood at 0.26 mg/L (≈ 0.775 µM). The “IC50 CB4” value in series [2] came out at 1.2 mg/L (≈ 3.58 µM). The “IC50 CA7” value in series [3] was 2.9 mg/L (≈ 8.65 µM). Further, the “IC50 HRV89” value in the series on HRV 89 (41617-Gallo) stood at 0.36 mg/L (≈ 1.07 µM). Further, in the series with HeLa-S3 cells, the “Cytotoxicity CC50 HeLa-S3” value is more than 4 mg/L. Further, in the series on HeLa cells, the “Cytotoxicity CC50 HeLa” value is more than 4 mg/L. Also, the “Cytotoxicity CC50 HeLa(Ohio)” value with HeLa (Ohio strain)cells is more than 4 mg/L. In addition, the “IC50 HRV1B” value in series [4] is 0.78 mg/L (≈ 2.33 µM). Further, the “IC50 Polio 1” value in [5] was determined as 0.66 mg/L (≈ 1.97 µM).
